What all share (type): cell-based
One assay concerns some of these organisms. Description: MIC against various organisms (unspecified subset). The note with it: against some of these organisms (those of the table). As to the method:
(§1) The MIC (μg/ml) of compounds 1 and 2 against various organisms was determined.

A further assay relates to S. aureus Oxford. Description: MIC against S. aureus Oxford. The conditions noted are these: Staphylococcus aureus. As to the method:
as §1

Another assay has as its system S. aureus WCUH29. Description: MIC against S. aureus WCUH29. The note with it: Staphylococcus aureus. As to the method:
as §1

A further assay deals with S. aureus Carter 37. As to the kind of experiment: MIC against S. aureus Carter 37. The conditions noted are these: Staphylococcus aureus, CARTER37. As to the method:
as §1

A further assay relates to E. faecalis I. As to the kind of experiment: MIC against E. faecalis I. The conditions noted are these: Enterococcus faecalis. As to the method: as §1
Another assay deals with M. catarrhalis Ravasio. As to the kind of experiment: MIC against M. catarrhalis Ravasio. The note with it: Moraxella catarrhalis. As to the method: as §1
For a further assay, the system named is S. pneumoniae R6. Description: MIC against S. pneumoniae R6. The conditions noted are these: Streptococcus pneumoniae. As to the method: as §1

Data on five molecules can be found in patent publication US20030212084A1, “Naphthrydine compounds and their azaisosteric analogues as antibacterials” (priority 1998, published 2003).

Molecules are shown by their SMILES. Converted amounts (≈) assume the structure as drawn.

For the molecule `C=C[C@H]1CN(CCCCCCC)CC[C@H]1CC(O)Cc1ccnc2ccc(OC)nc12` (mixture of isomers) [Example 5, [3R,4S]-1-Heptyl-3-ethenyl-4-[2-(R,S)-hydroxy-3-(6-methoxy-1,5-naphthyridin-4-yl)propyl]piperidine], in the assay on some of these organisms, the MIC – broadly, the lowest concentration found to suppress growth – was at most 1 µg/mL.

Consider `C=C[C@H]1CN(CCCCCCC)CC[C@H]1CCN(C)c1ncnc2ccc(OC)cc12` [Example 1, [3R, 4S]-1-Heptyl-4-[N-methyl-N-(6-methoxy-quinazolin-4-yl)-2-aminoethyl]-3-ethenylpiperidine], for which the MIC against S. aureus Oxford was determined as 0.5 µg/mL (≈ 1.18 µM); against S. aureus WCUH29 it was 0.5 µg/mL (≈ 1.18 µM); in the assay with S. aureus Carter 37 it was 0.5 µg/mL (≈ 1.18 µM); with E. faecalis I, 4 µg/mL (≈ 9.42 µM); in the assay on M. catarrhalis Ravasio, 0.5 µg/mL (≈ 1.18 µM); with S. pneumoniae R6 it was 0.5 µg/mL (≈ 1.18 µM).

With `C=C[C@H]1CN(CCCCCCC)CC[C@H]1CCOc1ncnc2ccc(OC)cc12` [Example 2, [3R, 4S]-1-Heptyl-4-[2-(6-methoxyquinazolin4-oxy)ethyl]-3-ethenylpiperidine], the MIC came out at 4 µg/mL (≈ 9.72 µM) against S. aureus Oxford; 4 µg/mL (≈ 9.72 µM) with S. aureus WCUH29; 4 µg/mL (≈ 9.72 µM) against S. aureus Carter 37; 8 µg/mL (≈ 19.4 µM) in the assay with E. faecalis I; 4 µg/mL (≈ 9.72 µM) in the assay with M. catarrhalis Ravasio; 8 µg/mL (≈ 19.4 µM) against S. pneumoniae R6.

Regarding `CCCCCCCN1CCC(C(=O)Nc2ccnc3ccc(OC)nc23)CC1` [Example 3, 1-Heptyl-4-(6-methoxy-1,5-naphthyridin-4-yl)aminocarbonyl Piperidine], in the assay on some of these organisms, the MIC is at most 1 µg/mL.

In the assay on some of these organisms, `CCCCCCCN1CC[C@@H](CC(=O)Nc2ccnc3ccc(OC)nc23)[C@@H](CC(N)=O)C1.O=C(O)C(=O)O` [Example 6, [3R,4S]-1-Heptyl-4-N-(6-methoxy-1,5-naphthyridin-4-yl)-3,4-piperidinediacetamide Oxalate] displayed an MIC of at most 1 µg/mL.
